System: 699152-130-R-J1-PDC complex spheroid viability
Assay: Anticancer human tumor 699152-130-R-J1-PDC patient-derived pancreatic carcinoma cell line growth inhibition [POLQ]
Settings: for IC50: curve of first compound; for viability, T/C: stronger effect = lower value
Experimental: Multicellular complex tumor spheroid response to Polymerase (POL) inhibitors (novobiocin, ART-558, RP6685) in combination with a variety of drugs and investigational agents in selected tumor cell lines
The POL inhibitors (novobiocin, ART-558, and RP6685) were evaluated both individually and in combination with standard of care and investigational anticancer small molecules within a complex spheroid model of solid tumors. . Complex spheroids include a stromal component modeled by human endothelial cells (HUVEC) and fibroblasts modeled by human mesenchymal stem cells (MSCs). The concentration ranges selected for each drug and investigational agent were based upon clinically achievable concentrations if the clinical Cmax of the agent was known.
Compounds. The drugs and investigational agents: novobiocin (NSC847541), ART-558 (NSC835418), RP-6685 (NSC848927), peposertib (NSC802822), ceralasertib (NSC780249), elimusertib (NSC800525), camonsertib (NSC841442), AZD-1390 (NSC803789), olaparib (NSC753686), talazoparib (NSC767125), rucaparib (NSC756644), sotorasib (NSC818433), MRTX-1133 (NSC836407), SN-38 (NSC673596), topotecan (NSC609699), epotoside (NSC141540), doxorubicin (NSC123127), gemcitabine (NSC613327), 5-fluorouracil (NSC19893), paclitaxel (NSC125973), vemurafenib (NSC761431), MSA-2 (NSC828583), SN-011 (NSC837082), adavosertib (NSC754352), prexasertib (NSC758257), carboplatin (NSC241240) and oxaliplatin (NSC266046), were obtained from the National Cancer Institute (NCI) Developmental Therapeutics Program Chemical Repository (21). The FDA-approved anticancer drug set is available from the Developmental Therapeutics Program at https://dtp.cancer.gov/organization/dscb/obtaining/. […] The stock solutions were prepared in dimethyl sulfoxide (DMSO, Sigma-Aldrich, St. Louis, MO, cat. D2650), except for the platinum compounds which were prepared in saline (Quality Biological, Gaithersburg, MD, cat. 114-055-101), at 800-fold the tested concentration and stored at -70 degrees C prior to their use. All drugs and investigational agents were tested over a range starting from a high concentration at or near the clinical Cmax and decreasing in half-log increments. If the clinical Cmax for an agent had not been determined, the highest concentration tested was 10 microM, except for SN-38, which was tested at a high concentration of 1 microM.
Cell Culture. All cells were maintained in an incubator at 37 degrees C and 5% CO2 with 95% humidity. The PDC lines were cultured according to standard operating procedures established by the NCI PDMR (https://pdmr.cancer.gov). Table 3 of the manuscript, lists the cell lines along with the number of the three cell types plated to form the mct-spheroids and media for tumor cell growth. After thawing, all PDC lines, except 997537-175-T-J1-PDC and 415267-285-R-J2-PDC, were cultured in Matrigel-coated flasks prepared with a working solution of 1X Ham's F-12 nutrient mix, without supplementation (Thermo Fisher Scientific, cat. 11765054), 100 U/mL penicillin-streptomycin (Thermo Fisher Scientific, cat. 15140122), and 2.5% Matrigel (Corning Inc., Corning, NY, cat. 354248) for the first three passages. The two PDC lines 997537-175-T-J1-PDC and 415267-285-R-J2-PDC were cultured on uncoated flasks. The 857933-349-R-J2-PDC line was cultured in 6C/Colon 1B media containing advanced DMEM/F-12 (Thermo Fisher Scientific, cat. 12634028), 10 mM HEPES (Thermo Fisher Scientific, cat. 15630080), 1X GlutaMAX supplement (Thermo Fisher Scientific, cat. 35050061), 0.1 mg/mL primocin (InvivoGen, San Diego, CA, cat. ant-pm-2), 10% defined fetal bovine serum, heat inactivated (HyClone Laboratories Inc., Logan, UT, cat. SH30070.03HI), 50% L-WRN conditioned media (ATCC, cat. CRL-3276), 1.25 mM N-Acetyl-L-cysteine (Sigma-Aldrich, cat. A9165), 10 mM nicotinamide (Sigma-Aldrich, cat. N0636), 1X B-27 supplement (Thermo Fisher Scientific, cat. 17504044), 1X N-2 supplement (Thermo Fisher Scientific, cat. […]
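Also: spheroids exposed to agents for 7 days before viability reading.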
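For viability, T/C in this document: percent of DMSO vehicle control viability so 100% = vehicle and 0% = no viable signal.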

## O=C(c1cc(Cc2n[nH]c(=O)c3ccccc23)ccc1F)N1CCN(C(=O)C2CC2)CC1 + COC1C(OC(N)=O)C(O)C(Oc2ccc3c(O)c(NC(=O)c4ccc(O)c(CC=C(C)C)c4)c(=O)oc3c2C)OC1(C)C
Second compound 0.0316 µM
  IC50: < 31.6 nM
Second compound 0.1 µM
  IC50: < 31.6 nM
Second compound 0.316 µM
  IC50: < 31.6 nM
Second compound 1 µM
  IC50: < 31.6 nM
Second compound 3.16 µM
  IC50: < 31.6 nM
Second compound 10 µM
  IC50: < 31.6 nM
Second compound 0.0316 µM, first compound 0.0316 µM
  viability, T/C: 38.8%
Second compound 0.0316 µM, first compound 0.1 µM
  viability, T/C: 37.8%
Second compound 0.0316 µM, first compound 0.316 µM
  viability, T/C: 35.3%
Second compound 0.0316 µM, first compound 1 µM
  viability, T/C: 40.3%
Second compound 0.0316 µM, first compound 3.16 µM
  viability, T/C: 35.7%
Second compound 0.0316 µM, first compound 10 µM
  viability, T/C: 34%
Second compound 0.1 µM, first compound 0.0316 µM
  viability, T/C: 42.7%
Second compound 0.1 µM, first compound 0.1 µM
  viability, T/C: 37.2%
Second compound 0.1 µM, first compound 0.316 µM
  viability, T/C: 38.5%
Second compound 0.1 µM, first compound 1 µM
  viability, T/C: 43.9%
Second compound 0.1 µM, first compound 3.16 µM
  viability, T/C: 37.2%
Second compound 0.1 µM, first compound 10 µM
  viability, T/C: 29.8%
Second compound 0.316 µM, first compound 0.0316 µM
  viability, T/C: 40%
Second compound 0.316 µM, first compound 0.1 µM
  viability, T/C: 41.5%
Second compound 0.316 µM, first compound 0.316 µM
  viability, T/C: 40.6%
Second compound 0.316 µM, first compound 1 µM
  viability, T/C: 36.5%
Second compound 0.316 µM, first compound 3.16 µM
  viability, T/C: 33.6%
Second compound 0.316 µM, first compound 10 µM
  viability, T/C: 32.3%
Second compound 1 µM, first compound 0.0316 µM
  viability, T/C: 41.6%
Second compound 1 µM, first compound 0.1 µM
  viability, T/C: 39.7%
Second compound 1 µM, first compound 0.316 µM
  viability, T/C: 36.9%
Second compound 1 µM, first compound 1 µM
  viability, T/C: 37.4%
Second compound 1 µM, first compound 3.16 µM
  viability, T/C: 39.6%
Second compound 1 µM, first compound 10 µM
  viability, T/C: 35.1%
Second compound 3.16 µM, first compound 0.0316 µM
  viability, T/C: 39%
Second compound 3.16 µM, first compound 0.1 µM
  viability, T/C: 42.9%
Second compound 3.16 µM, first compound 0.316 µM
  viability, T/C: 41.3%
Second compound 3.16 µM, first compound 1 µM
  viability, T/C: 40.7%
Second compound 3.16 µM, first compound 3.16 µM
  viability, T/C: 36.8%
Second compound 3.16 µM, first compound 10 µM
  viability, T/C: 36.9%
Second compound 10 µM, first compound 0.0316 µM
  viability, T/C: 38.3%
Second compound 10 µM, first compound 0.1 µM
  viability, T/C: 36.2%
Second compound 10 µM, first compound 0.316 µM
  viability, T/C: 36.2%
Second compound 10 µM, first compound 1 µM
  viability, T/C: 40.2%
Second compound 10 µM, first compound 3.16 µM
  viability, T/C: 42.9%
Second compound 10 µM, first compound 10 µM
  viability, T/C: 31.1%

Source: PubChem BioAssay AID1963835 (Molecular Pharmacology Branch, DTP, NCI, 2024)
